From US9682999B2, “Benzofuran compounds for the treatment of hepatitis C virus infections” (Glaxo Group Limited, priority 2011, dated 2017)
Read-outs that look alike come from different tables or passages of the source.

Assays:
[1] = system: sub-genomic HCV NS3-NS5B replicon genotype 1a (Huh-7 cells); assay: Replicon luciferase cell based assay, genotype 1a; conditions: Huh-7 genotype 1a luciferase replicon, 48 hours, read-out: EC50 GT 1a
Experimental: (§1) 150 μL of a 1 mM stock solution in DMSO of each test compound was transferred into in the first column of a 96 well, V-bottom microplate, to give 200 times the top concentration of the required dilution series. Aliquots of 50 μL were added to each well of the remaining rows containing 100 μL of DMSO giving a 1:3 dilution series over ten points. Columns 11 and 12 contained DMSO only for the positive and negative control, respectively. 10 μL of each well were transferred into 90 μL of DMEM medium (Invitrogen #41965-039) supplemented with 5% v/v foetal calf serum, 1% v/v non-essential amino acids solution, 100 units/ml penicillin, 100 μg/ml streptomycin and 2 mM L-glutamine to give 20 times the top concentration of the required dilution series.
(§2) Suspensions were prepared from cultures of Huh-7 cells stably transfected with sub-genomic HCV NS3-NS5B replicons of either genotype 1b (the ET subline described by Pietschmann, T., Lohmann, V., Kaul, A., Krieger, N., Rinck, G., Rutter, G., Strand, D. & Bartenschlager, R., Journal of Virology, 2002, 76, 4008-4021), genotype 1a (subline 1.19 constructed in-house from H77 SG-Neo containing adaptive mutations P1496L and S2204I as described by Blight, K. J., McKeating, J. A., Marcotrigiano, J., and Rice, C. M. Journal of Virology, 2003, 77, 3180-3190), genotype 1b C316N (constructed in-house by site directed mutagenesis of the NS5B gene of the ET subline), or genotype 1a C316Y (constructed in-house by site directed mutagenesis of the NS5B gene of H77 SG-Neo containing adaptive mutations P1496L and S2204I as described by Blight, K. J., McKeating, J. A., Marcotrigiano, J., and Rice, C. M. Journal of Virology, 2003, 77, 3180-3190) linked to a firefly luciferase reporter gene. Monolayers nearing confluency were stripped from growth flasks with versene-trypsin solution and the cells re-suspended in assay medium comprising DMEM. 95 μL of suspension containing either 15,000 cells (genotype 1b luciferase replicon) or 20,000 cells (genotype 1a luciferase replicon) were added to all wells of a 96 well plate (Perkin Elmer, #6005686), except medium controls in column 12 of the assay plate. The cell suspension was dosed with 5 μL of compound solution and the plate was incubated for 48 hours at 37° C. in a 5% CO2 atmosphere.
(§3) For toxicity the cells in one plate were treated with Cell Titer Glo (Promega, #G7573). A solution of Cell Titer Glo was prepared according to the manufacturer's instructions, and 100 μL added to each well. The plate was then read for luminescence on an Envision. For potency a solution of Steady Glo (Promega, #E2550) was prepared according to the manufacturer's instructions and 100 μL added to each well. After a twenty minute incubation the plate was then read for luminescence on an Envision.
(§4) Potency: The luminescence values from all compound-free wells containing cells were averaged to obtain a positive control value. The mean luminescence value from the compound-free wells that had received no cells was used to provide the negative (background) control value. The readings from the wells at each compound concentration were taken and after the subtraction of the mean background from all values, were expressed as a percentage of the positive control signal. The quantifiable and specific reduction of luciferase signal in the presence of a drug is a direct measure of replicon inhibition. BioAssay Enterprise (CamebridgeSoft) with the XC50 module for curve fitting was used to plot the curve of percentage inhibition against compound concentration and derive the 50% inhibitory concentration (EC50) for the compound. EC50 is the effective concentration, that is, the concentration of compound where 50% maximal effect is observed. The EC50 values of two identical plates were averaged. The results are presented in Table 1 as EC50 for genotypes (GT) 1a, 1b, 1b 316N and 1a 316Y.

[2] = system: sub-genomic HCV NS3-NS5B replicon genotype 1b (Huh-7 cells); assay: Replicon luciferase cell based assay, genotype 1b; conditions: Hepatitis C virus; Huh-7 genotype 1b luciferase replicon, 48 hours; read-out: EC50 GT1b
Experimental: as §1, §2, §3, §4

[3] = system: sub-genomic HCV NS3-NS5B replicon genotype 1b C316N (Huh-7 cells); assay: Replicon luciferase cell based assay, genotype 1b C316N; conditions: read-out: EC50 1b 316N
Experimental: as §1, §2, §3, §4

[4] = system: sub-genomic HCV NS3-NS5B replicon genotype 1a C316Y (Huh-7 cells); assay: Replicon luciferase cell based assay, genotype 1a C316Y; conditions: Hepatitis C virus, Huh-7, 48 h, read-out: EC50 1a 316Y
Experimental: as §1, §2, §3, §4

[5] = In vivo pharmacokinetic study, rat
Experimental: In vivo pharmacokinetic studies were conducted in mouse, rat, dog, or cynomolgus monkey to determine clearance, oral exposure and bioavailability (% F). Solution doses of the compounds were administered intravenously through catheters or orally by gavage. Blood samples were collected at the following time points (n=2 or 3/route/species): 0.083 (IV only), 0.167 (IV only), 0.25, 0.5, 1, 2, 4, 6, 8, 12, and 24 h. Non-compartmental pharmacokinetic parameters were determined using Phoenix Winnonlin 6.1 (Pharsight, Mountain View, Calif.). Bioavailability of the oral formulation of each compound were calculated as the ratio of the oral dose normalized AUCinf to the intravenous dose normalized AUCinf. Results are expressed in Table 2.

Row | SMILES | EC50 ([1]; Hepatitis C virus) [nM] | EC50 [2] [nM] | EC50 ([3]; Hepatitis C virus, Huh-7, 48 h) [nM] | EC50 [4] [nM] | further results
1 | CNC(=O)c1c(-c2ccc(F)cc2)oc2cc(N(c3ccc(B4OC(C)(C)C(C)(C)O4)c(C)c3)S(C)(=O)=O)c(C3CC3)cc12 [Example 22, 5-Cyclopropyl-2-(4-fluorophenyl)-N-methyl-6-(N-(3-methyl-4-(4,4,5,5-tetramethyl-1,3,2-dioxaborolan-2-yl)phenyl)methylsulfonamido)benzofuran-3-carboxamide] | 1 to 10 | 1 to 10 | 1 to 10 | 200 to 1000 | –
2 | CS(=O)(=O)N(c1ccc(B(O)O)c(Cl)c1)c1cc2oc(-c3ccc(Cl)cc3)c(C(=O)O)c2cc1C1CC1 [Example 13, 6-(N-(4-borono-3-chlorophenyl)methylsulfonamido)-2-(4-chlorophenyl)-5-cyclopropylbenzofuran-3-carboxylic acid] | > 1000 | > 1000 | > 1000 | – | –
3 | CS(=O)(=O)N(c1ccc(B(O)O)c(Cl)c1)c1cc2oc(-c3ccc(Cl)cc3)c(C(N)=O)c2cc1C1CC1 [Example 14, (4-(N-(3-carbamoyl-2-(4-chlorophenyl)-5-cyclopropylbenzofuran-6-yl)methylsulfonamido)-2-chlorophenyl)boronic acid] | 1 to 10 | 1 to 10 | 1 to 10 | 11 to 200 | –
4 | CNC(=O)c1c(-c2ccc(F)cc2)oc2cc(N(c3ccc(B(O)O)c(F)c3)S(C)(=O)=O)c(C3CC3)cc12 [Example 5, 4-(N-(5-cyclopropyl-2-(4-fluorophenyl)-3-(methylcarbamoyl)benzofuran-6-yl)methylsulfonamido)-2-fluorophenylboronic acid] | 1 to 10 | 1 to 10 | 1 to 10 | 11 to 200 | –
5 | CNC(=O)c1c(-c2ccc(F)cc2)oc2cc(N(c3ccc(B(O)O)c(C(F)(F)F)c3)S(C)(=O)=O)c(C3CC3)cc12 [Example 10, (4-(N-(5-cyclopropyl-2-(4-fluorophenyl)-3-(methylcarbamoyl)benzofuran-6-yl)methylsulfonamido)-2-(trifluoromethyl)phenyl)boronic acid] | 1 to 10 | 1 to 10 | 1 to 10 | 11 to 200 | –
6 | CNC(=O)c1c(-c2ccc(Cl)cc2)oc2cc(N(c3ccc(B(O)O)c(C#N)c3)S(C)(=O)=O)c(C3CC3)cc12 [Example 21, (4-(N-(2-(4-Chlorophenyl)-5-cyclopropyl-3-(methylcarbamoyl)benzofuran-6-yl)methylsulfonamido)-2-cyanophenyl)boronic acid] | 1 to 10 | 1 to 10 | 1 to 10 | 1 to 10 | –
7 | CNC(=O)c1c(-c2ccc(F)cc2)oc2cc(N(c3ccc(CCB(O)O)c(Cl)c3)S(C)(=O)=O)c(C3CC3)cc12 [Example 23, (2-Chloro-4-(N-(5-cyclopropyl-2-(4-fluorophenyl)-3-(methylcarbamoyl)benzofuran-6-yl)methylsulfonamido)phenethyl)boronic acid] | 1 to 10 | 1 to 10 | 11 to 200 | 11 to 200 | –
8 | CNC(=O)c1c(-c2ccc(F)cc2)oc2cc(N(c3ccc(C4COB(O)C4)c(Cl)c3)S(C)(=O)=O)c(C3CC3)cc12 (stereo not shown) [Example 25, 6-(N-(3-Chloro-4-(2-hydroxy-1,2-oxaborolan-4-yl)phenyl)methylsulfonamido)-5-cyclopropyl-2-(4-fluorophenyl)-N-methylbenzofuran-3-carboxamide] | 1 to 10 | 1 to 10 | 11 to 200 | 11 to 200 | –
9 | CNC(=O)c1c(-c2ccc(F)cc2)oc2cc(N(c3ccc(C4CCB(O)O4)c(Cl)c3)S(C)(=O)=O)c(C3CC3)cc12 (single isomer, unassigned; enantiomer 1) [Example 28, 6-(N-(3-Chloro-4-(2-hydroxy-1,2-oxaborolan-5-yl)phenyl)methylsulfonamido)-5-cyclopropyl-2-(4-fluorophenyl)-N-methylbenzofuran-3-carboxamide, enantiomer 1] | 1 to 10 | 1 to 10 | 11 to 200 | 11 to 200 | –
10 | CNC(=O)c1c(-c2ccc(F)cc2)oc2cc(N(c3ccc(C4CCB(O)O4)c(Cl)c3)S(C)(=O)=O)c(C3CC3)cc12 (stereo not shown) [Example 27, 6-(N-(3-Chloro-4-(2-hydroxy-1,2-oxaborolan-5-yl)phenyl)methylsulfonamido)-5-cyclopropyl-2-(4-fluorophenyl)-N-methylbenzofuran-3-carboxamide] | 1 to 10 | 1 to 10 | 11 to 200 | 11 to 200 | –
11 | CNC(=O)c1c(-c2ccc(F)cc2)oc2cc(N(c3ccc(C4CCB(O)O4)c(Cl)c3)S(C)(=O)=O)c(C3CC3)cc12 (single isomer, unassigned; enantiomer 2) [Example 29, 6-(N-(3-Chloro-4-(2-hydroxy-1,2-oxaborolan-5-yl)phenyl)methylsulfonamido)-5-cyclopropyl-2-(4-fluorophenyl)-N-methylbenzofuran-3-carboxamide, enantiomer 2] | – | – | – | – | EC50 [1]: 1 to 10 nM; EC50 ([3]; Huh-7 genotype 1b C316N luciferase replicon, 48 hours): 11 to 200 nM
12 | CNC(=O)c1c(-c2ccc(Cl)cc2)oc2cc(N(Cc3ccc(B(O)O)c(F)c3)S(C)(=O)=O)c(C3CC3)cc12 [C] | – | – | – | – | DNAUC ([5]; Rat): 434 ng·h/mL/mg/kg; T 1/2 ([5]; Rat): 1.8 H; clearance ([5]; rat, blood, intravenous): 15.6 mL/min/kg; Vd ([5]; rat, blood, intravenous, read-out: Vss): 1.1 L/kg; bioavailability ([5]; rat, blood, oral): 40%
13 | CNC(=O)c1c(-c2ccc(F)cc2)oc2cc(N(c3ccc(B(O)O)cn3)S(C)(=O)=O)c(C3CC3)cc12 [Example 8, 6-(N-(5-cyclopropyl-2-(4-fluorophenyl)-3-(methylcarbamoyl)benzofuran-6-yl)methylsulfonamido)pyridin-3-ylboronic acid] | > 1000 | > 1000 | > 1000 | – | –
14 | CNC(=O)c1c(-c2ccc(F)cc2)oc2cc(N(c3ccc(OCB(O)O)cc3)S(C)(=O)=O)c(C3CC3)cc12 [Example 18, ((4-(N-(5-Cyclopropyl-2-(4-fluorophenyl)-3-(methylcarbamoyl)benzofuran-6-yl)methylsulfonamido)phenoxy)methyl)boronic acid] | – | 1 to 10 | 11 to 200 | 11 to 200 | –
15 | CNC(=O)c1c(-c2ccc(F)cc2)oc2cc(N(c3ccc4c(c3)CCOB4O)S(C)(=O)=O)c(C3CC3)cc12 [Example 30] | 1 to 10 | 1 to 10 | 1 to 10 | – | –
